The text below walks through data of patent US20120283334A1, “Treatment of Viral Infections” (Biocopea, Ltd., priority 2009, published 2012).

Each structure is given as a SMILES string. Entries after “also recorded” stand apart in the source; their conditions may differ. Read-outs that look alike come from different tables or passages of the source.

One data set concerns IFN-γ. Briefly: IFN-γ levels in PBMC under LPS stimulation (ELISA). The settings on record: for Percentage IFN-γ levels compared to 100% untreated cells under LPS stimulation: PBMC; for concentration of IFN-γ in LPS stimulated cells: text summary of Table 1, concentration not stated. Type of data set: cell-based, human. As to the method: 1) Isolation, Culture and Treatment of Peripheral Blood Mononuclear Cells (PBMC) Blood was collected in 6 ml vacutainers (green cap). Blood was processed within 2 h of collection. Materials used: Non-coagulated blood; FCS; RPMI-1640 media supplemented with L-Gln and P/S; PBS; sterile tips and pipettes; Sterile 15 ml Falcon; Sterile V-bottom 96-well plates with lids; Neubauer chamber; Trypan Blue solution; 70% IPA solution; Accuspin-Histopaque tubes (Sigma, A7054) Procedure: • 1. Dilute samples 1:1 in sterile PBS; • 2. Add 30 ml of diluted blood into an Accuspin-Histopaque tube (Sigma, A7054); • 3. Centrifuge at 800 rcf 15min at room temperature (RT); • 4. After centrifugation, the red blood cells will remain at the bottom below the frit. The monocytes (PBMC) will be present on a layer above the frit, with the plasma on top; • 5. Collect the PBMC layer with a pipette into a fresh 15 ml Falcon tube and top up to 15 ml of PBS; • 6. Centrifuge at 250 rcf 10 min at RT; • 7. Discard the supernatant, flick the pellet and add another 10 ml of PBS; • 8. Centrifuge at 250 rcf 10 min at RT; • 9. Repeat steps 7 and 8; • 10. […] Count cells and make a 4×10^6 cell/ml suspension in complete medium. Add 100 μl of cell suspension per well in a V-bottom 96-well plate. Then add 50 μl of stimulant or vehicle in complete media, and 50 μl of drug or vehicle in complete media. Incubate the cells for 24 h at 37° C. 5% CO2; • 12. After incubation, take 60 μl of cell supernatant to measure IFNγ and TNFα by ELISA (OptEIA human IFNγ, cat No. 555142 and human TNF, Cat No. 555212) following manufacturer's instructions (BD Biosciences); The two mitogens that the inventors used to stimulate lymphocytes, and therefore assess immune function, were lipopolysaccharide (LPS) and Concanavalin A (Con A). LPS acts on B cells but not T cells, whereas Con A acts on T cells but not B cells. The effects of two embodiments of the compound represented by formula I, i.e. dobutamine (referred to in the tables as BC1021) and ritodrine (BC1023), on the levels of IFN-γ and TNF-α were investigated in LPS and Con A stimulated assays. Peripheral Blood Mononuclear Cells (PMBC) were independently administered with each mitogen, LPS or Con A, and then treated with either dobutamine or ritodrine. Control experiments were conducted in which no LPS or Con A was added, such that any effect on the levels of IFN-γ and TNF-α could be directly attributed to the presence of the test compound, dobutamine or ritodrine. The values in the Tables are expressed as the percentage value of the LPS only control. […] Standard deviation values (s.d.) are given underneath each value of expressed IFN-γ levels.
On the technique in general: In an ELISA, binding on a coated surface is turned into a signal by an enzyme label.

Data set [1] relates to Influenza A/PR/8/34 (H1N1 virus). Put plainly: In vivo mouse influenza challenge, dobutamine and ritodrine intra-peritoneal. The settings on record: H1N1-infected mice; for Sum Total Morbidity: FIG. 3. As to the method: 5) In Vivo Mouse Studies Using Dobutamine
Protocol: Fifty (50) C57BL/6 female mice (6-7 weeks old), were divided into […] experimental groups containing ten (10) animals each. On day 1, animals received an intranasal lethal dose (50 μl total, 25 μl nostril) of Influenza A/PR/8/34 under halothane induced anesthesia. On Day 3, animals received one intra-peritoneal injection (100-150 μl) of the test compound. On Day 4 or 5, all animals still alive received a second intra-peritoneal injection (100-150 μl) of the test compound.
All animals were assessed daily for morbidity, weight loss and survival from Day 1 until at least Day 6. Morbidity variables (i.e. Body Condition, Posture, Activity, Piloerection, Respiration, Vocalisation, Ataxia and Oculo/Nasal Discharges) were recorded according to the following scale of severity: Normal (0), Mild (1), Laboured (2) and Severe/Cull-point (3).
Using standard techniques as described above, mice were infected with a H1N1 virus which was allowed to become established in each of the subjects. Each test mouse was then treated with dobutamine (BC1021) either with a single dose on day 3 after infection with the virus, or as two doses, one on day 3 and one on day 4 after infection. In the control mice, no dobutamine was administered. The weight loss of both treated and untreated mice was then determined.
The inventors also investigated the effects of dobutamine (single and double doses) as well as ritodrine (single and double doses) on the Sum Total Morbidity of the tested mice. Referring to FIG. 3, there are shown the data of these experiments. The value of Sum Total Morbidity corresponds to a confidence value of the general “wellness” of the mice, and takes into account the quality of the fur and grooming of the mice, and whether or not the mice are able to feed and walk. Measurement of Morbidity values will be known to the skilled technician.

The subject of data set [2] is Con A stimulated cells. Briefly: Percentage cell survival of Con A stimulated cells. The note with it: for Percentage cell survival compared to 100% untreated cells under Con A stimulation: compound only (no Con A).
The test system of data set [3] is Con A stimulated cells. The settings on record: for Percentage cell survival compared to 100% untreated cells under Con A stimulation: human.
The mark [4] stands for this setting: two doses on days 3 and 4 (Groups C and E).

Regarding `CC(CCc1ccc(O)cc1)NCCc1ccc(O)c(O)c1` (stereo not drawn) [BC1021, dobutamine], the “Percentage IFN-γ levels compared to 100% untreated cells under LPS stimulation” value in the data set with IFN-γ (+ LPS, compound 1 μM, 24 h) was 82.88%; with IFN-γ (+ LPS, compound 10 μM, 24 h) it was 29.84%; in the data set on IFN-γ (+ LPS, compound 100 μM, 24 h) it was 37.22%; in the data set with IFN-γ (compound only (no LPS), 1 μM), 1.21%; in the data set with IFN-γ (compound only (no LPS), 10 μM) it was −0.33%; in the data set with IFN-γ (compound only (no LPS), 100 μM), −0.99%. For the same molecule, in the data set on IFN-γ, the “concentration of IFN-γ in LPS stimulated cells” value is “decreased”. For the same molecule, the “Sum Total Morbidity” value was “improvement of the morbidity value” in data set [1] (all doses, single or double) and “the most improvements; also recorded: the most effective” in data set [1] (setting [4]). Further, the “effect on weight loss” value in data set [1] (single dose on day 3, FIG. 1) is reported as “little effect”. For the same molecule, the “percentage survival of mice” value in data set [1] (single dose on day 3, FIG. 2) was “little effect”; in data set [1] (two doses, day 3 and day 4, FIG. 2) it was “higher survival rate than the control”. The “lower reduction in weight loss than the control mice” value in data set [1] (two doses on days 3 and 4 after infection, FIG. 1) is not below 10%. Besides, the “Percentage cell survival compared to 100% untreated cells under Con A stimulation” value was 76.89% in the data set with Con A stimulated cells [2] (1 μM), 69.80% in the data set on Con A stimulated cells [2] (10 μM) and 44.95% in the data set with Con A stimulated cells [2] (100 μM). Besides, the “percentage cell survival compared to the untreated controls” value with Con A stimulated cells [2] (text summary of Table 5, all doses) was “higher”.

For `CC(NCCc1ccc(O)cc1)C(O)c1ccc(O)cc1` (stereo not drawn) [BC1023, ritodrine], the “Percentage IFN-γ levels compared to 100% untreated cells under LPS stimulation” value in the data set with IFN-γ (+ LPS, compound 1 μM, 24 h) is on record as 44.79%; in the data set on IFN-γ (+ LPS, compound 10 μM, 24 h), 51.41%; in the data set with IFN-γ (+ LPS, compound 100 μM, 24 h), 38.74%; in the data set with IFN-γ (compound only (no LPS), 1 μM), 1.04%; in the data set with IFN-γ (compound only (no LPS), 10 μM) it was 2.73%; in the data set with IFN-γ (compound only (no LPS), 100 μM), 5.46%. In the data set with IFN-γ, the “concentration of IFN-γ in LPS stimulated cells” value is on record as “decreased”. The “Sum Total Morbidity” value in data set [1] (all doses, single or double) is “improvement of the morbidity value”; in data set [1] (setting [4]) it was “the most improvements”. In addition, the “percentage cell survival compared to the untreated controls” value with Con A stimulated cells [3] is on record as “higher”. Further, the “Percentage cell survival compared to 100% untreated cells under Con A stimulation” value in the data set on Con A stimulated cells [3] (1 μM) turned out to be 78.69%; in the data set with Con A stimulated cells [3] (10 μM) it was 75.25%; with Con A stimulated cells [3] (100 μM) it was 72.56%.
